# Measured values from paper PMC11203266, “Continuous evolution of compact protein degradation tags regulated by selective molecular glues” (Science (New York, N.Y.), 2024).
# Entries after “also recorded” stand apart in the source; their conditions may differ.
# What was measured:
# HEK293T cells = assay: Global quantitative proteomics, HEK293T; format: cell-based, human; details: 1 µM; for proteins downregulated (in words): 5 hours
# Description: (§1) Cells were lysed by addition of lysis buffer (8 M Urea, 50 mM NaCl, 50 mM 4-(2-hydroxyethyl)-1-piperazineethanesulfonic acid (EPPS) pH 8.5, Protease and Phosphatase inhibitors) and homogenization by bead beating (BioSpec) for three repeats of 30 seconds at 2400. Bradford assay was used to determine the final protein concentration in the clarified cell lysate. 50 μg of protein for each sample was reduced, alkylated and precipitated using methanol/chloroform as previously described ([32]) and the resulting washed precipitated protein was allowed to air dry. Precipitated protein was resuspended in 4 M Urea, 50 mM HEPES pH 7.4, followed by dilution to <1 M urea with the addition of 200 mM EPPS, pH 8. Proteins were digested with LysC (1:50; enzyme:protein) and trypsin (1:50; enzyme:protein) overnight at 37 °C. Sample digests were acidified with formic acid to a pH of 2-3 prior to desalting using C18 solid phase extraction plates (SOLA, Thermo Fisher Scientific). Desalted peptides were dried in a vacuum centrifuge and reconstituted in 0.1% formic acid for LC-MS analysis.
# (§2) Data were collected using a TimsTOF Pro2 (Bruker Daltonics, Bremen, Germany) coupled to a nanoElute LC pump (Bruker Daltonics, Bremen, Germany) via a CaptiveSpray nano-electrospray source. Peptides were separated on a reversed-phase C18 column (25 cm x 75 μm ID, […], IonOpticks, Australia) containing an integrated captive spray emitter. Peptides were separated using a 50 min gradient of 2 – 30% buffer B (acetonitrile in 0.1% formic acid) with a flow rate of 250 nL/min and column temperature maintained at 50 °C.
# (§3) DDA was performed in Parallel Accumulation-Serial Fragmentation (PASEF) mode to determine effective ion mobility windows for downstream diaPASEF data collection (Meier et al., 2020). The ddaPASEF parameters included: 100% duty cycle using accumulation and ramp times of 50 ms each, 1 TIMS-MS scan and 10 PASEF ramps per acquisition cycle. The TIMS-MS survey scan was acquired between 100–1700 m/z and 1/k0 of 0.7–1.3 V.s/cm^2. Precursors with 1–5 charges were selected and those that reached an intensity threshold of 20,000 arbitrary units were actively excluded for 0.4 min. The quadrupole isolation width was set to 2 m/z for m/z <700 and 3 m/z for m/z >800, with the m/z between 700–800 m/z being interpolated linearly. The TIMS elution voltages were calibrated linearly with three points (Agilent ESI-L Tuning Mix Ions; 622, 922, 1,222 m/z) to determine the reduced ion mobility coefficients (1/K0). To perform diaPASEF, the precursor distribution in the DDA m/z-ion mobility plane was used to design an acquisition scheme for DIA data collection which included two windows in each 50 ms diaPASEF scan. Data was acquired using sixteen of these 25 Da precursor double window scans (creating 32 windows) which covered the diagonal scan line for doubly and triply charged precursors, with singly charged precursors able to be excluded by their position in the m/z-ion mobility plane. These precursor isolation windows were defined between 400–1200 m/z and 1/k0 of 0.7–1.3 V.s/cm^2.
# The diaPASEF raw file processing and controlling peptide and protein level false discovery rates, assembling proteins from peptides, and protein quantification from peptides was performed using either targeted, cell line specific spectral libraries generated by searching offline fractionated DDApasef data against a Swissprot human or mouse database (January 2021) or using library free analysis in DIA-NN 1.8 ([85]). Library free mode performs an in-silico digestion of a given protein sequence database alongside deep learning-based predictions to extract the DIA precursor data into a collection of MS2 spectra. The search results are then used to generate a spectral library which is then employed for the targeted analysis of the DIA data searched against a Swissprot human or mouse database (January 2021). […]
# Ba/F3 cells = assay: Global quantitative proteomics, Ba/F3; format: cell-based, mouse; details: 1 µM; for changes to protein expression (in words): pomalidomide 5 hrs, PT-179 5 and 24 hrs
# Description: as §1, §2, §3
# The diaPASEF raw file processing and controlling peptide and protein level false discovery rates, assembling proteins from peptides, and protein quantification from peptides was performed using either targeted, cell line specific spectral libraries generated by searching offline fractionated DDApasef data against a Swissprot human or mouse database (January 2021) or using library free analysis in DIA-NN 1.8 ([85]). Library free mode performs an in-silico digestion of a given protein sequence database alongside deep learning-based predictions to extract the DIA precursor data into a collection of MS2 spectra. The search results are then used to generate a spectral library which is then employed for the targeted analysis of the DIA data searched against a Swissprot human or mouse database (January 2021).
# MM.1S cells = assay: Whole-transcriptome RNA-Seq; format: cell-based, human; details: for differentially expressed genes: 1 μM, 48 hrs, fold-change > 2, FDR-corrected P < 0.01
# Description: The effect of small molecule treatment on transcriptome-wide RNA expression was evaluated using bulk RNA sequencing of 5 biological replicates per sample. […] 48 hours following treatment, cells were washed with PBS and lysed in RLT buffer (Qiagen) with β-mercaptoethanol. Total RNA from each sample was purified from 2–4×10^5 cells using the RNeasy Mini Kit (Qiagen) with on-column DnaseI digestion and eluted in nuclease-free water. Polyadenylated RNA was sequenced using Smart-seq2 as previously described ([82]) with two changes: 20 ng of total RNA and Maxima Rnase H-minus reverse transcriptase (Thermo Fisher) were used for the initial reverse transcription step. The resulting cDNA libraries were sequenced on an Illumina NextSeq 550 High Output kit with the following run parameters: 37 cycles for read1, 37 cycles for read2, 8 cycles for index1, and 8 cycles for index2.
# Sequencing data were demultiplexed with bcl2fastq and roughly 40 million paired-end reads were obtained per sample. Transcript-level quantification was performed using kallisto ([83]) with the homo sapiens GRCh38 reference transcriptome and with bootstrapping. Differential expression analysis at the gene level was conducted using Deseq2 with batch correction of biological replicates ([84]). To pre-filter low count genes, only genes with at least 10 counts in at least 5 samples were analyzed. Compared between conditions, genes with a transcript abundance fold-change > 2 and with a false discovery rate-corrected P-value < 0.01 were called as differentially expressed.
smiles,measurement,setting,value
O=C1CCC(N2C(=O)c3ccc(N4CCOCC4)cc3C2=O)C(=O)N1 (centres unmarked) [PT-179],proteins downregulated (in words),HEK293T cells,did not downregulate any detected proteins
same,logFC EIF5A (P63241),"HEK293T cells; vs DMSO, 5 hr, HEK293T",1.52E-01
same,logFC GAL (P22466),"HEK293T cells; vs DMSO, 5 hr, HEK293T",8.26E-01
same,logFC ITPKC (Q96DU7),"HEK293T cells; vs DMSO, 5 hr, HEK293T",6.63E-01
same,logFC RBM23 (Q86U06),"HEK293T cells; vs DMSO, 5 hr, HEK293T",2.25E-01
same,logFC ROR1 (Q01973),"HEK293T cells; vs DMSO, 5 hr, HEK293T",8.84E-01
same,changes to protein expression (in words),Ba/F3 cells,do not degrade proteins; also recorded: no significant changes to protein expression
same,logFC Bak1 (O08734),"Ba/F3 cells; vs DMSO, 5 hr, Ba/F3",-1.95E-01
same,logFC Hspa1l (P16627),"Ba/F3 cells; vs DMSO, 5 hr, Ba/F3",3.76E-01
same,logFC Polr2l (P62876),"Ba/F3 cells; vs DMSO, 5 hr, Ba/F3",5.32E-01
same,logFC Prkd1 (Q62101),"Ba/F3 cells; vs DMSO, 5 hr, Ba/F3",5.39E-01
same,logFC Rpa2 (Q62193),"Ba/F3 cells; vs DMSO, 5 hr, Ba/F3",1.32E-01
same,logFC Pigo (Q9JJI6),"Ba/F3 cells; vs DMSO, 24 hr, Ba/F3",-3.94E-01
same,logFC Ppib (P24369),"Ba/F3 cells; vs DMSO, 24 hr, Ba/F3",9.71E-02
same,logFC Prpf38a (Q4FK66),"Ba/F3 cells; vs DMSO, 24 hr, Ba/F3",-1.96E-01
same,logFC Ube2v1 (Q9CZY3),"Ba/F3 cells; vs DMSO, 24 hr, Ba/F3",5.05E-01
same,logFC Uchl4 (P58321),"Ba/F3 cells; vs DMSO, 24 hr, Ba/F3",1.38E-01
same,differentially expressed genes,MM.1S cells,three
same,decrease in the frequency of gene expression perturbation,MM.1S cells; PT-179 vs pomalidomide,475 fold
"Nc1cccc2c1C(=O)N(C1CCC(=O)NC1=O)C2=O (centres unmarked) [pomalidomide, reference compound]",proteins downregulated (in words),HEK293T cells,induced degradation of ZFP91
same,logFC C3 (P01024),"HEK293T cells; vs DMSO, 5 hr, HEK293T",7.85E-01
same,logFC DTWD1 (Q8N5C7),"HEK293T cells; vs DMSO, 5 hr, HEK293T",-1.29E+00
same,logFC EIF5A (P63241),"HEK293T cells; vs DMSO, 5 hr, HEK293T",1.83E-01
same,logFC PKM (P14618),"HEK293T cells; vs DMSO, 5 hr, HEK293T",1.32E-01
same,logFC ZFP91 (Q96JP5),"HEK293T cells; vs DMSO, 5 hr, HEK293T",-2.05E+00
same,changes to protein expression (in words),Ba/F3 cells,do not degrade proteins
same,logFC Bola1 (Q9D8S9),"Ba/F3 cells; vs DMSO, 5 hr, Ba/F3",-2.16E-01
same,logFC Dusp19 (Q8K4T5),"Ba/F3 cells; vs DMSO, 5 hr, Ba/F3",-7.00E-01
same,logFC Inpp5k (Q8C5L6),"Ba/F3 cells; vs DMSO, 5 hr, Ba/F3",-9.47E-01
same,logFC Llph (Q9D945),"Ba/F3 cells; vs DMSO, 5 hr, Ba/F3",2.10E-01
same,logFC Med8 (Q9D7W5),"Ba/F3 cells; vs DMSO, 5 hr, Ba/F3",-3.40E-01
same,differentially expressed genes,MM.1S cells,"1,426 genes"
